This note sets out measurements from patent publication US20240300935A1, “Nitrogen Oxide Donors of Beraprost Derivative and the Pharmaceutical Compositions with the Use Thereof” (GUANGZHOU KEMROCMED CO., LTD., priority 2021, published 2024).

Assay [1] deals with postmenopausal osteoporosis mouse model. Briefly: Therapeutic effect of osteoporosis, postmenopausal osteoporosis mouse model (ovariectomy). Further details: Tb · N: unit not given here. Format: in vivo. An excerpt: • 1) Test materials; 1. Animal clean grade C57BL/6 strain, 8-10 weeks old not pregnant females were purchased from Yangzhou University. 2. Main reagents and instruments, Bujiale (estradiol valerate tablets, Bayer); mouse osteocalcin (osteocalcin, OC) enzyme-linked immunotest kit, alkaline phosphatase (alkaline phosphatase, ALP) test kit, tartrate acid phosphatase (StrACP) test kit (all the above kits were purchased in Nanjing). Dual-energy X-ray bone densitometer (HOLOGIC); ECLIPSE 50i microscope (Nikon); MUTISKANMK3 microplate reader (Thermo); tissue slicing equipment (including KD-TS3D1 biological tissue automatic dehydrmachine (Zhejiang Cody), TB-718 biological tissue automatic embedding machine (Hubei), R138 rotary slicer (Hubei), TK-212 automatic constant temperature drift instrument (Hubei), TK-213 automatic constant temperature dryer (Hubei), etc.). • 2) Test method: A animals were grouped, and the random method divided the female mice into 4 groups, namely, sham operation group, model group, positive drug group, and test drug group. B Preparation of postmenopausal osteoporosis mouse model, chloral hydrate anesthesia and removed the ovaries in the lying position. In the sham group, only the same volume of fat tissue near the ovaries was removed. Vaginal smear was performed on days 4-8 after ovariectomy to determine if the ovariectomy was complete. Method of c, on the third day after the operation, positive control drug (0.1 mL/10 g gavage), equal volume of 0.9%sodium chloride solution in sham group and model group, continuous gavage for 28 d. Test ResResults test: Blood and bone tissue samples after day 28. The following indicators were tested: (1) determination of bone density, lumbar L4-6 measurement of bone density by double energy X-ray bone density instrument. (2) Observation of bone tissue and morphology, the bone tissue and morphology changes were observed by tibial HE staining, mainly testing the trabecular volume ratio (bone volume/tissue volume, BV/TV) and the number of trabecular bone (trabecular bone number, Tb. N) and trabecular separation (trabecular separation, Tb. And sp) were the quantitative evaluation index. (3) For the determination of biological indicators ALP, StrACP, OC, and E 2 in mouse serum, blood was collected by enucleation method, and by kit and enzyme-linked adsorption assay.

Assay [2] has as its system renal tubular epithelial cells in acute renal failure. Briefly: Renal tubular protective effect of acute renal failure (co-culture with isolated cells). Format: cell-based, rat. The conditions noted are these: renal tubular epithelial cells from acute renal failure rats, 200 μg/mL. An excerpt: • 1) Test materials, glycerol (MacLean Company); CCK-8 kit, Annexin V-PE cell apoptosis detection kit, superoxide dismutase activity detection kit, malondialdehyde detection kit (Biyun Biotech); first anti-cysteine aspartate protease, caspase 3 and 9, B lymphocytoma-2 gene, Bcl-2-associated X protein (BAX, anti-rabbit), TGF-β 1, smad 3 (abcam, USA). Protein gel imager, microplate reader, and flow cytometer (Beckman Coulter, Type CytoFLEX). Clean-grade SD rats were purchased from Yangzhou University. • 2) Test method, the model of acute renal failure of rat hind limb injection was used. After 24 h, the level of BUN and Cr increased in rat serum, vascular necrosis of renal interstitium, and inflammatory cell infiltration were regarded as successful model establishment. Some renal tissues from model animals were taken for in vitro culture, renal tubular epithelial cells were isolated and identified, and test drug co-culture (0-24 hours) was added. Changes of various biochemical indicators and apoptosis were determined. […] Conclusion Test compounds can promote tubular epithelial cells proliferation, inhibit apoptosis, inhibit oxidative stress, and slow the damage of renal tubular epithelial cells by inhibiting the expression of proapoptotic proteins.

Assay [3] in a line: In vitro NO release test (Griess method). Conditions: 200 μM test compound solution mixed with 200 μM L-cysteine solution, 37° C. As for the experimental part:
NO was transiently oxidized in aqueous solution using released NO by Griess' method, NO^2− And Griess reagent form a complex, which has strong UV uptake at 540 nm to determine the amount of NO released by the compound. • 1) Preparation of solution: blank solution: 10 mL DMSO and 190 m L PBS mixed; G riess Reagent: sulfonamide (4.0 g), N-(1-naphthalyl) ethylenediamine dihydrochloride (0.2 g) and 10 mL 85% H3PO4 dissolved in 90 mL of distilled water, Blow until clear solution; L-cysteine solution: after accurate weighing of L-cysteine, Add a certain amount of PBS, Prepare a weighed 200 μM solution; Test compound solution: the exact weighing of the test compound, Dissolved in D MSO and diluted to a concentration of 1 mM, Then, when diluted in PBS, To a concentration of 200 μM.
2) Formulation of standard curve equation: prepare sodium nitrite solution concentration: 0 ,0 , 1, 3, 6, 12.5, 25, 50, 100 μmol/L, 150 μL of each concentration, add 50 μL of Griess reagent mix, incubated in 37° C. constant temperature shaker for 30 min, the plate reader measured each tube absorbance at 540 nm, after subtracting the blank solution reading, the standard curve equation . . . 78.56.13.25 • 3) Test compound test: mix 2 mL of the test compound solution and L-cysteine solution, incubate in 37° C. constant temperature shakers for 120 min, take 150 μL of each mixture, add 50 μL of Griess reagent, then incubate in 37° C. constant temperature shaker for 30 min, the microplate measured each tube absorbance at 540 nm, then subtract the blank solution reading and substitute the value into the standard curve equation to obtain NO release.
For orientation: Griess reagent forms a coloured azo dye with nitrite.

Assay [4] concerns rats with hypoxic pulmonary hypertension. Nature of the assay: In vivo test in rats with hypoxic pulmonary hypertension. Conditions: SD male rats, low pressure low oxygen chamber, 5 mg/kg, after four weeks, vs model group. More on the design: species or system rat. The protocol:
• 1) Experimental instruments and materials, HX-200 animal ventilator, and SD male rats used in the experiment were all purchased from Yangzhou University. All control groups were reared in a normal environment, and the administration intervention and model groups were reared in the low pressure low oxygen chamber (air pressure 50 kPa, oxygen concentration 10%). • 2) Compound 15 was dissolved using DMSO/solutol/water (10/10/80). In the intervention group, the dose was 5 mg/kg, all rats were weighed weekly, survival was recorded, and pulmonary artery pressure was measured after four weeks. Rats (3 ml/kg) were anesthetized with chloral hydrate (100 g/L), fixed in the supine position, tracheotomy, and breathing assisted with a small animal ventilator (frequency 60 beats/min, 5 ml, breath ratio 4:5). Free the left third rib, a catheter connecting one end to the tension transducer was sent to the pulmonary artery, and the mean pulmonary artery pressure (mP AP) was recorded through the BL-420E Biofunction experimental system. […] The results of FIG. 1 show the effect of beraprost derivative compound 15.

For assay [5], the system named is platelet aggregation induced by ADP. Briefly: Antiplatelet aggregation effect, ADP-induced, turbidimetry in platelet-rich plasma. Format: cell-based. Conditions: Homo sapiens, 2 min; platelet rich plasma of healthy subjects; 25 μL of 50 nM compound solution in 225 μL plasma, 37° C. 2 min; ADP final 2 μM; read-out: The rate of platelet aggregation inhibition. The protocol: • 1) Experimental material: ADP, epinephrine, collagen (bilBio) • 2) Experimental method: blood samples provided by healthy subjects were mixed blood with 3.8% citric acid solution and centrifuged at 160 r/min to obtain platelet-rich plasma. To calibrate the data, the obtained platelet-rich plasma was further centrifuged at 2000 r/min to obtain platelet-poor plasma, stored in a −20° C. refrigerator. Testing was performed using Born I's turbiometry. 225 μL of platelet rich plasma was added to the reaction cup, the embodiment compound was configured as 50 nM solution (25 m M Tris-acetate and 120 m M N a Cl), 25 μL of embodiment compound solution was added and after incubation at 37° C. for 2 min, 5 μL of ADP (final concentration 2 μM) was added for platelet aggregation induction. To assess the degree of platelet aggregation, the maximum absorbance value took the data after ADP, thus calculating the inhibition rate of ADP-induced platelet aggregation by each embodiment compound. According to the data in Table 6 below, the compounds of the present application embodiment all have a good effect of inhibiting the platelet aggregation induced by ADP.

The mark [6] stands for this setting: tibial HE staining, ovariectomised C57BL/6 mice, gavage 28 d.

As for `CC#CCC(C)[C@@H](O)/C=C/[C@H]1[C@@H]2c3cccc(CCCC(=O)OCC4CCCC(CO[N+](=O)[O-])C4)c3O[C@@H]2C[C@@H]1O` (stereo partly shown) [Compound 15], in assay [1] (mouse serum, day 28), the ALP was 19 ± 2.2 King-Armstrong unit/100 mL, the E2 came out at 35 ± 4 ng/mL, the OC is listed as 1.7 ± 0.2 ng/mL and the “Str ACP” value was 41 ± 3.6 U/L. In assay [1] (setting [6]), the BV/VT is 0.29 ± 0.05, the “Tb · N” value is reported as 7.5 ± 0.6 and the “Tb · sp” value came to 152 ± 15 μm. For the same compound, in assay [2], the “B AX protein level” value came out at 0.32 ± 0.12, the “B CL2 protein level” value amounted to 0.56 ± 0.11, the MDA is recorded as 489 ± 38 Nnol/g protein and the “S mad3 protein level” value is given as 0.19 ± 0.07. In assay [2], the SOD stood at 1016 ± 117 U/g egg white, the “T GF-β1 protein level” value stood at 0.24 ± 0.05, the “The rate of apoptosis” value is 9 ± 0.7% and the caspase3 protein level is listed as 0.28 ± 0.06. In addition, in assay [2], the caspase9 protein level is reported as 0.48 ± 0.1. The “120 min NO^2−” value in assay [3] is 12.7 µM. Further, the “mean pulmonary artery pressure (mPAP)” value in assay [4] is listed as “lower compared with the model group”. Further, the inhibition (in general, the relative decrease from the control value, in per cent) at 0.005 µM in assay [5] amounted to 92%.
